The record followed here is patent US7087629B2, “Heterocyclylaminomethyloxazolidinones as antibacterials” (AstraZeneca AB, priority 1998, dated 2006).

≈ marks a conversion by molar mass, not a printed value.

Holding throughout (format): cell-based
Assay [1] has as its system Streptococcus pyogenes C203. Kind of assay: MIC by agar-dilution, Streptococcus pyogenes C203. Particulars: agar with 5% defibrinated horse blood, 10^4 CFU/spot, 37° C., 5% carbon dioxide, 48 hours. The procedure:
(§1) The following results were obtained on a standard in-vitro test system. The activity is described in terms of the minimum inhibitory concentration (MIC) detemined by the agar-dilution technique with an inoculum size of 10^4 CFU/spot. Typically, compounds are active in the range 0.01 to 256 μg/ml. Streptococci and enterococci were tested on agar supplemented with 5% defibrinated horse blood, an inoculum of 10^4 CFU/spot and an incubation temperature of 37° C. in an atmosphere of 5% carbon dioxide for 48 hours—blood is required for the growth of some of the test organisms.

For assay [2], the system named is Enterococcus faecalis. Nature of the assay: MIC by agar-dilution, Enterococcus faecalis. To be noted: agar with 5% defibrinated horse blood, 10^4 CFU/spot, 37° C., 5% carbon dioxide, 48 hours. The procedure:
as §1

The subject of assay [3] is Staphylococcus aureus Novb. Res (Novobiocin resistant). Kind of assay: MIC by agar-dilution, Staphylococcus aureus Novb. Res. To be noted: inoculum 10^4 CFU/spot, 37° C., 24 hours. The procedure:
(§2) The following results were obtained on a standard in-vitro test system. The activity is described in terms of the minimum inhibitory concentration (MIC) detemined by the agar-dilution technique with an inoculum size of 10^4 CFU/spot. Typically, compounds are active in the range 0.01 to 256 μg/ml.
(§3) Staphylococci were tested on agar, using an inoculum of 10^4 CFU/spot and an incubation temperature of 37° C. for 24 hours—standard test conditions for the expression of methicillin resistance.

Assay [4] concerns Coagulase Negative Staphylococci MR (methicillin resistant). Nature of the assay: MIC by agar-dilution, Coagulase Negative Staphylococci MR. To be noted: inoculum 10^4 CFU/spot, 37° C., 24 hours. The procedure: as §2, §3
Assay [5] concerns Staphylococcus aureus Oxford. Kind of assay: MIC by agar-dilution, Staphylococcus aureus Oxford. To be noted: inoculum 10^4 CFU/spot, 37° C., 24 hours. The procedure: as §2, §3
For assay [6], the system named is Bacillus subtilis. Nature of the assay: MIC by agar-dilution, Bacillus subtilis. To be noted: inoculum 10^4 CFU/spot. The procedure:
as §2

For assay [7], the system named is Staphylococcus aureus MRQR (methicillin resistant quinolone resistant). Kind of assay: MIC by agar-dilution, Staphylococcus aureus MRQR. Particulars: inoculum 10^4 CFU/spot, 37° C., 24 hours. The procedure:
as §2, §3

Assay [8] relates to Coagulase Negative Staphylococci MS (methicillin sensitive). Kind of assay: MIC by agar-dilution, Coagulase Negative Staphylococci MS. To be noted: inoculum 10^4 CFU/spot, 37° C., 24 hours. As to the method:
as §2, §3

Regarding `O=C1O[C@@H](CNc2ccon2)CN1c1ccc(N2CCOCC2)c(F)c1` [Example 2, 5(S)-Isoxazol-3-ylaminomethyl-3-(3-fluoro-4-morpholinophenyl)-oxazolidin-2-one], the MIC turned out to be 1 µg/mL (≈ 2.76 µM) in assay [1]; 2 µg/mL (≈ 5.52 µM) in assay [2]; 1 µg/mL (≈ 2.76 µM) in assay [3]; 1 µg/mL (≈ 2.76 µM) in assay [4]; 0.5 µg/mL (≈ 1.38 µM) in assay [5]; 0.5 µg/mL (≈ 1.38 µM) in assay [6]. Moreover, the MIC worked out at 1 µg/mL (≈ 2.76 µM) in assay [7] and 0.5 µg/mL (≈ 1.38 µM) in assay [8].
